{
  "source": "patent US6423739B1",
  "about": "“Method for aiding cerebral recovery following neurodegeneration” (Daiichi Pharmaceutical Co., Ltd., priority 2000, dated 2002)",
  "key": {"post-stroke patients": {"test_system": "post-stroke patients", "assay": "Controlled clinical trial against placebo, symptom scale measuring Activities of Daily Living", "assay_type": "in vivo, human", "excerpt": "The activity of nefiracetam to improve ADL in post-stroke patients has been discovered during a controlled clinical trial against placebo. The compound has been administered orally to 32 post-stroke patients within six months after the event whilst, concurrently, 27 patients received placebo. The two groups of patients were followed during at least 8 weeks and followed up at the end of week 4 and at the end of week 8 on a symptom scale measuring Activities of Daily Living. […] Among the above 59 patients, 19 received nefiracetam and 10 received placebo within three months after stroke. […] The difference was significant (p=0.035, χ^2 test). […] Thus nefiracetam, when administered early after the event, appears to be the first drug which is able to induce a recovery from stroke or, at least, to improve the recovery from stroke."}, "[1]": {"test_system": "patients after a stroke (cerebral infarction or cerebral hemorrhage)", "conditions": "post-stroke patients, Ohtomo et al. 1994; cited from earlier work"}, "[2]": {"test_system": "hippocampal and cortical rat embryo neurons", "assay": "Neurite outgrowth in primary cultures of hippocampal and cortical rat embryo neurons", "assay_type": "cell-based"}, "[3]": {"test_system": "rats with cerebral embolism", "assay": "Watermaze spatial learning and retention test in rats with cerebral embolism", "assay_type": "in vivo, rat", "excerpt": "The mechanism of action of nefiracetam for this indication, which is not bound to the nootropic activity of the drug, is unknown, but it is believed that its surprising effect in improving ADL of a patient after a stroke or in the recovery of, or at least in improving the recovery of, a post-stroke patient, is due to a true brain repair. This assumption is confirmed by the effect of nefiracetam on spatial learning and retention in rats with cerebral embolism, treated for 9 days with nefiracetam or vehicle, starting within 24 hours of embolization.\nIn male Wistar rats weighing 190-220 g a total of 700 microspheres (48 μm in diameter) were injected into the right common carotid artery of each animal, whereby a quasi-immediate embolism occurs. The embolized animals were randomly divided into 2 groups, each of 13 animals with same neurological deficit, designated as “Control” (embolism plus Vehicle), or “Nefiracetam” (embolism plus nefiracetam 10 mg/kg/day). In addition, a group of 13 “Normal (Sham)” non-embolized animals were used. The administration of nefiracetam or of its vehicle started within the same day of embolization and treatment lasted 9 days. Seven days after embolization, the embolized rats were submitted to a watermaze test, said watermaze being adapted from the Morris water task. The time taken to find the platform (latency) was determined. […]"}},
  "data": [
    {"compound": "Cc1cccc(C)c1NC(=O)CN1CCCC1=O", "note": "[Nefiracetam, N-(2,6-dimethylphenyl)-2-(2-oxo-1-pyrrolidinyl)acetamide]", "values": [
      {"measurement": "Patients showing a moderate or remarkable improvement (Activities of Daily Living)", "setting": "post-stroke patients; 19 patients who received nefiracetam within three months after stroke, p=0.035 vs placebo, chi2 test", "result": "~70", "unit": "%"},
      {"measurement": "Intellectual dysfunction", "setting": "post-stroke patients; early treatment after stroke", "result": "dramatically improved in a high percent of nefiracetam-treated patients"},
      {"measurement": "Neurological signs and incontinence", "setting": "post-stroke patients; early treatment after stroke", "result": "tends to improve"},
      {"measurement": "Improvement on symptom scale measuring Activities of Daily Living", "setting": "post-stroke patients; oral, 32 post-stroke patients treated within six months after the event, followed at week 4 and week 8", "result": "moderate or remarkable improvement"},
      {"measurement": "Activities of daily living, nefiracetam vs placebo group", "setting": "[1]", "result": "no significant difference between the two groups"},
      {"measurement": "Neurotrophic effect: neurite outgrowth", "setting": "[2]; concentrations of 0.1, 1, 10 and 100 micromoles/l", "result": "significantly increasing neurite outgrowth"},
      {"measurement": "Neurotrophic effect in combination with bFGF", "setting": "[2]; hippocampal neurons", "result": "potentiated by bFGF"},
      {"measurement": "Persistence of the effect after washout", "setting": "[3]; day 17 after embolization", "result": "maintained even after washout"},
      {"measurement": "Difference in learning ability versus vehicle-treated (control) brain-injured animals", "setting": "[3]; days 7-9 post-embolism, t-test, p<0.05 compared to control", "result": "statistically significant"}
    ]}
  ]
}
